Non-standard residues stand in square brackets, D forms with d. Residues, ends and D or L forms follow the SMILES beside them. No end group written: not given here. *: point of attachment. Succinimide(1-Et,3-yl) = CCN1C(=O)CC(*)C1=O; hArg = N=C(N)NCCCC[C@H](N)C(=O)O

Assay [1] addresses T1, mouse NMUR1-ATG (Mus musculus, UniProt O55040).
T1 sequence (O55040 1-428): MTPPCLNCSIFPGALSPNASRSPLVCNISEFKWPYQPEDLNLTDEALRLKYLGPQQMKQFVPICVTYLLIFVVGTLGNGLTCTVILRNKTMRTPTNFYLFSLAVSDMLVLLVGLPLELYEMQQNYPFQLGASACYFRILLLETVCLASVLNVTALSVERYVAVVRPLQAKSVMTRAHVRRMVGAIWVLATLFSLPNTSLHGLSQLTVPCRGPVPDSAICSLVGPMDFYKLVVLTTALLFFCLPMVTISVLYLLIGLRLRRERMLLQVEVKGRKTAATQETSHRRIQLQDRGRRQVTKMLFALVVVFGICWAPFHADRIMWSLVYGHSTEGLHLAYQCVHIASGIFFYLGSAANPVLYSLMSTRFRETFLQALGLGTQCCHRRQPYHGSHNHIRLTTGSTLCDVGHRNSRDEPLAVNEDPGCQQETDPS
The assay can be described thus: 125I-hNMU-25 binding assay, mouse R1-ATG. The arrangement: expressed in transfected cells; host or cells: HEK-293 FLP-In cells (pcDNA5). Conditions: for IC50: binding. The method, then: (§1) Confluent cell monolayers expressing NMU receptors (the HEK cells described above) were harvested with phosphate buffered saline, collected by centrifugation, and resuspended in membrane buffer (50 mM TrisCl pH 7.4, 5 mM MgCl2, 1× Protease Inhibitor Cocktail, 10 μM phosphoramidon). After the cell pellet was homogenized, the solution was centrifuged at 18,000 rpm for 20 minutes at 4° C. The pellet was resuspended in membrane buffer to yield a final concentration of 0.5-5 μg/μL of membrane and stored at −80° C.
(§2) Experiments were performed in assay buffer (25 mM TrisCl, pH 7.4, 10 mM MgCl2, 2 mM EDTA, 1× Protease Inhibitor Cocktail, 100 μg/mL Bacitricin, 10 μM phosphoramidon) in 200 μL volumes in a 96-well format using 2-5 μg of membrane and 0.1 nM ^125I-hNMU-25 (about 12,000 cpm/well). For non-specific binding, 1 μM hNMU-25 was added. About 5 μL of peptides were added to measure antagonist activity, and the entire reaction was incubated at room temperature with shaking for 80 minutes. The reaction was terminated by rapid filtration through 0.3% poly-ethylenimine presoaked Millipore 96-well filter plates and washed with ice-cold buffer (5 mM TrisCl pH 7.4, 10 mM MgCl2, 2.5 mM EDTA, 0.04% Triton X-100). Plates were air-dried overnight at room temperature and recovered radioactivity was determined by standard scintillation counting. IC50 values were determined using GraphPad Prism software.
(§3) Concentration-response curves and radioligand-binding data were fitted using Prism (GraphPad Software). Results are summarized below in Tables 8 and 9.

The target of assay [2] is T2, Mouse NMUR1-CTG (Mus musculus, UniProt O55040).
T2 sequence (O55040 1-428): T1 sequence (O55040 1-428)
Description: 125I-hNMU-25 binding assay, mouse R1-CTG. Set-up: expressed in transfected cells; host or cells: HEK-293 FLP-In cells (pcDNA5). Conditions: for IC50: binding. Here is the method: as §1, §2, §3

The target in assay [3] is T3, rat NMUR1-ATG (Rattus norvegicus, UniProt Q9JJI5).
T3 sequence (Q9JJI5 1-425): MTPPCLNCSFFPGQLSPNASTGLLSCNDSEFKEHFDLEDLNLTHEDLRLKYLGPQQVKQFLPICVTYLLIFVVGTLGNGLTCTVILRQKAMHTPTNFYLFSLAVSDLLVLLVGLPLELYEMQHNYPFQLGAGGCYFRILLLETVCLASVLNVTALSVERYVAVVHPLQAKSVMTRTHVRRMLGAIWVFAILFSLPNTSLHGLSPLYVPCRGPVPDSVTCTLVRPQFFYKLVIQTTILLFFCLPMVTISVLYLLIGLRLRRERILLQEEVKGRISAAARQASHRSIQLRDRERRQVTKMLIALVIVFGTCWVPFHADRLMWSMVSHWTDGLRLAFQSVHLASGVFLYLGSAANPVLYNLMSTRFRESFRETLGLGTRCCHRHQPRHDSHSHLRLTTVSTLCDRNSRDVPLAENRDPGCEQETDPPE
The assay can be described thus: 125I-hNMU-25 binding assay, rat R1-ATG. The arrangement: expressed in transfected cells; host or cells: HEK-293 FLP-In cells (pcDNA5). To be noted: for IC50: binding. Here is the method:
as §1, §2, §3

The target in assay [4] is T4, rat NMUR1-TTG (Rattus norvegicus, UniProt Q9JJI5).
T4 sequence (Q9JJI5 1-425): T3 sequence (Q9JJI5 1-425)
The assay can be described thus: 125I-hNMU-25 binding assay, rat R1-TTG. Conditions: for IC50: binding. Set-up: expressed in transfected cells; host or cells: HEK-293 FLP-In cells (pcDNA5). Here is the method: as §1, §2, §3

For assay [5], the target named is rat NMUR2 (Rattus norvegicus, UniProt Q9ESQ4). The assay can be described thus: 125I-hNMU-25 binding assay, rat R2. Set-up: expressed in transfected cells; host or cells: HEK-293 FLP-In cells (pcDNA5). Conditions: for IC50: binding. The method, then: as §1, §2, §3
Chain of rat NMUR2 (Q9ESQ4 whole entry): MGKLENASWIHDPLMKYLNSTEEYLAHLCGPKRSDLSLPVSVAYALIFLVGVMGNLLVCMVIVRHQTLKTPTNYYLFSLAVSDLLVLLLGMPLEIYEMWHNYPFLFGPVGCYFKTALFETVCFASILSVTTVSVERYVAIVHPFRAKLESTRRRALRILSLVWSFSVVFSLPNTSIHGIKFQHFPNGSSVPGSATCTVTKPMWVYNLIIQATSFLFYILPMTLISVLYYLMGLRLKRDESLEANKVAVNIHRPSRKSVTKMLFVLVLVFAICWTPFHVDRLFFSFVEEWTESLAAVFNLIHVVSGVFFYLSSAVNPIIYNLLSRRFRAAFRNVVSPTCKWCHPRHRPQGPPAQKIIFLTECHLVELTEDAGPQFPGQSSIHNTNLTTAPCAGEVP
In assay [6] the target is hNMUR2 (Homo sapiens, UniProt Q9GZQ4). Description: FLIPR calcium mobilization assay, human NMUR2. The assay is classed as cell-based. Set-up: expressed in transfected cells; host or cells: FLP-In CHO or HEK-293 FLP-In cells (pcDNA5); HEK-293/aeq17 lines (pcDNA3.1) were also made. To be noted: functional data, human R2. A general note: Calcium assays in cells follow changes in intracellular calcium, usually with a dye or a luminescent sensor.
Chain of hNMUR2 (Q9GZQ4 whole entry): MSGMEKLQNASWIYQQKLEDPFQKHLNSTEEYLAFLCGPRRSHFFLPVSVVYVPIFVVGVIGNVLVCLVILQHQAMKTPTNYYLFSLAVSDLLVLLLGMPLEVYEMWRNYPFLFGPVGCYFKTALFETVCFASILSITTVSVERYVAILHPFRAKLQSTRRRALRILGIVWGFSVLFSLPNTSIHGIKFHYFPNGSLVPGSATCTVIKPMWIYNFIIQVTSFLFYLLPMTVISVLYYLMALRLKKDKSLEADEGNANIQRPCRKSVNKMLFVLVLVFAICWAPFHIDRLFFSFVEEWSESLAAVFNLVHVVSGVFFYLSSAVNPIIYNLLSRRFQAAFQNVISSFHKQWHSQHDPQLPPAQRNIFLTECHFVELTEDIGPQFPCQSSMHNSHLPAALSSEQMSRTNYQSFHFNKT

For assay [7], the system named is NMUR1 and NMUR2. Description: NMU receptor subtype selectivity (EC50 ratios human NMUR2/human NMUR1). The assay is classed as cell-based. Conditions: NMUR1 vs NMUR2. Here is the method: The present invention provides neuromedin U receptor agonist. The neuromedin U receptor agonist described herein act at NMU receptors, bind the NMU receptors, and stimulate NMU receptor activity. In one aspect, the neuromedin U receptor agonists are specific for one receptor subtype, wherein such specificity is defined as having an IC50 values that is less than about 200 nM in the corresponding NMUR1 or NMUR2 receptor binding assay. Selectivity is based upon functional activity or EC50 ratios at human NMUR2/human NMUR1 for NMUR1-selective peptides and at human NMUR1/human NMUR2 for NMUR2-selective peptides. Further, the selective neuromedin U receptor agonists described herein range from about 21 to 909-fold selective for NMUR1 and from about 2 to 200-fold selective for NMUR2. In another aspect, the neuromedin U receptor agonists are capable of binding and stimulating both the NMUR1 and NMUR2 receptors and have been derivatized to enable the neuromedin U receptor agonists to cross the blood-brain bather and interact with NMU receptors in the brain. The neuromedin U receptor agonists can be used therapeutically and as research tools.

For the compound `CC(C)C[C@@H](NC(=O)[C@H](Cc1ccccc1)NC(=O)[C@H](Cc1ccc(O)cc1)NC(=O)CNC(=O)[C@H](CCCNC(=N)N)NC(=O)[C@H](CO)NC(=O)[C@H](CCC(N)=O)NC(=O)[C@H](CO)NC(=O)[C@H](C)NC(=O)[C@H](Cc1ccccc1)NC(=O)[C@@H]1CCCN1C(=O)[C@H](CO)NC(=O)[C@H](CCC(N)=O)NC(=O)[C@H](Cc1ccccc1)NC(=O)[C@H](CCC(=O)O)NC(=O)[C@H](CCC(=O)O)NC(=O)[C@H](CC(=O)O)NC(=O)[C@@H](NC(=O)[C@H](CCCNC(=N)N)NC(=O)[C@@H](N)Cc1ccccc1)C(C)C)C(=O)N[C@@H](Cc1c[nH]c2ccccc12)C(=O)N[C@@H](CCCNC(=N)N)C(=O)N1CCC[C@H]1C(=O)N[C@@H](CCCNC(=N)N)C(=O)N[C@@H](CC(N)=O)C(N)=O` [Agonist H] (H-FRVDEEFQSPFASQSRGYF[dL]WRPRN-NH2; N-terminus assumed), the “% inhibition of NMU-25 binding” value in assay [1] came out at 77%; in assay [2], 83%; in assay [3] it was 100%; in assay [4], 100%; in assay [5], 0%. Moreover, the IC50 (in general, the point on the concentration scale where inhibition reaches its midpoint) in assay [1] is 66 nM; in assay [2], 25 nM; in assay [3], 15.9 nM; in assay [4], 11 nM; in assay [5], over 1000 nM; in assay [6], over 1000 nM.

For the compound `CC(C)C[C@H](NC(=O)[C@H](Cc1c[nH]c2ccccc12)NC(=O)[C@H](Cc1ccccc1)NC(=O)CNC(=O)[C@H](CCCNC(=N)N)NC(=O)[C@H](CO)NC(=O)[C@H](CCC(N)=O)NC(=O)[C@H](CO)NC(=O)[C@H](C)NC(=O)[C@H](Cc1ccccc1)NC(=O)[C@@H]1CCCN1C(=O)[C@H](CO)NC(=O)[C@H](CCC(N)=O)NC(=O)[C@H](Cc1ccccc1)NC(=O)[C@H](CCC(=O)O)NC(=O)[C@H](CCC(=O)O)NC(=O)[C@H](CC(=O)O)NC(=O)[C@@H](NC(=O)[C@H](CCCNC(=N)N)NC(=O)[C@@H](N)Cc1ccccc1)C(C)C)C(=O)N[C@@H](Cc1ccccc1)C(=O)N[C@@H](CCCNC(=N)N)C(=O)N1CCC[C@H]1C(=O)N[C@@H](CCCCNC(=N)N)C(=O)N[C@@H](CC(N)=O)C(N)=O` [Agonist O] (H-FRVDEEFQSPFASQSRGFWLFRP[hArg]N-NH2; N-terminus assumed), the receptor subtype specificity entry in assay [7] is on record as “bispecific”.

`CC(C)C[C@H](NC(=O)[C@H](Cc1c[nH]c2ccccc12)NC(=O)[C@H](Cc1ccccc1)NC(=O)CNC(=O)[C@H](CCCNC(=N)N)NC(=O)[C@H](CO)NC(=O)[C@H](CCC(N)=O)NC(=O)[C@H](CO)NC(=O)[C@H](C)NC(=O)[C@H](Cc1ccccc1)NC(=O)[C@@H]1CCCN1C(=O)[C@H](CO)NC(=O)[C@H](CCC(N)=O)NC(=O)[C@H](Cc1ccccc1)NC(=O)[C@H](CCC(=O)O)NC(=O)[C@H](CCC(=O)O)NC(=O)[C@H](CC(=O)O)NC(=O)[C@@H](NC(=O)[C@H](CCCNC(=N)N)NC(=O)[C@@H](N)Cc1ccccc1)C(C)C)C(=O)N[C@@H](Cc1ccccc1)C(=O)N[C@@H](CCCNC(=N)N)C(=O)N[C@@H](C)C(=O)N[C@@H](CCCCNC(=N)N)C(=O)N[C@@H](CC(N)=O)C(N)=O` [Agonist P] (H-FRVDEEFQSPFASQSRGFWLFRA[hArg]N-NH2; N-terminus assumed): the receptor subtype specificity result in assay [7] is listed as “bispecific”.

Consider `CCN1C(=O)CC(SC[C@H](NC(C)=O)C(=O)N[C@@H](Cc2ccccc2)C(=O)N[C@@H](CCCNC(=N)N)C(=O)N[C@H](C(=O)N[C@@H](CC(=O)O)C(=O)N[C@@H](CCC(=O)O)C(=O)N[C@@H](CCC(=O)O)C(=O)N[C@@H](Cc2ccccc2)C(=O)N[C@@H](CCC(N)=O)C(=O)N[C@@H](CO)C(=O)N2CCC[C@H]2C(=O)N[C@@H](Cc2ccccc2)C(=O)N[C@@H](C)C(=O)N[C@@H](CO)C(=O)N[C@@H](CCC(N)=O)C(=O)N[C@@H](CO)C(=O)N[C@@H](CCCNC(=N)N)C(=O)NCC(=O)N[C@@H](Cc2ccc(O)cc2)C(=O)N[C@@H](Cc2ccccc2)C(=O)N[C@H](C)C(=O)N[C@@H](Cc2c[nH]c3ccccc23)C(=O)N[C@@H](CCCNC(=N)N)C(=O)N2CCC[C@H]2C(=O)N[C@@H](CCCNC(=N)N)C(=O)N[C@@H](CC(N)=O)C(N)=O)C(C)C)C1=O` (stereo partly drawn) [NMU13] (Ac-C(Succinimide(1-Et,3-yl))FRVDEEFQSPFASQSRGYF[dA]WRPRN-NH2), for which the “% inhibition of NMU-25 binding” value stood at 100% in assay [1]; 100% in assay [2]; 100% in assay [3]; 100% in assay [4]; 0% in assay [5]. Besides, the IC50 in assay [5] and in assay [6] was over 1000 nM each time.

As for FALFRPRN-NH2 [Agonist N], the receptor subtype specificity result in assay [7] is “bispecific”.

Turning to “H-FRVDEEFQSPFASQSRGYFLFRPRN-NH2 [hNMU-25, reference compound]”, the IC50 in assay [1] is 0.4 nM; in assay [2], 0.15 nM; in assay [3], 1.2 nM; in assay [4], 0.2 nM; in assay [5], 0.6 nM; in assay [6], 0.8 nM.
